Source: PubChem BioAssay (NCI)
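Assay format: 96-well plates, 48-hour exposure. TGI marks complete inhibition of growth.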

Assays:
Test in all cases: inhibition of tumour cell growth, NCI panel, 48 h
SR leukemia = system: SR leukemia
UACC-62 melanoma = system: UACC-62 melanoma
SF-268 CNS = system: SF-268 CNS
SF-295 CNS = system: SF-295 CNS
SK-OV-3 ovarian = system: SK-OV-3 ovarian
MDA-MB-435 = system: MDA-MB-435
HL-60(TB) leukemia = system: HL-60(TB) leukemia
UACC-257 melanoma = system: UACC-257 melanoma
OVCAR-4 ovarian = system: OVCAR-4 ovarian
PC-3 prostate = system: PC-3 prostate
NCI/ADR-RES ovarian = system: NCI/ADR-RES ovarian
DU-145 prostate = system: DU-145 prostate
RPMI-8226 leukemia = system: RPMI-8226 leukemia
HCC-2998 colon = system: HCC-2998 colon
HOP-62 NSCLC = system: HOP-62 NSCLC
OVCAR-8 ovarian = system: OVCAR-8 ovarian
SK-MEL-28 melanoma = system: SK-MEL-28 melanoma
HT29 colon = system: HT29 colon
HCT-116 colon = system: HCT-116 colon
CCRF-CEM leukemia = system: CCRF-CEM leukemia
U251 CNS = system: U251 CNS
HOP-92 NSCLC = system: HOP-92 NSCLC
SW-620 colon = system: SW-620 colon
SNB-75 CNS = system: SNB-75 CNS
CAKI-1 renal = system: CAKI-1 renal
NCI-H460 lung = system: NCI-H460 lung
K-562 leukemia = system: K-562 leukemia
KM12 colon = system: KM12 colon
LOX IMVI melanoma = system: LOX IMVI melanoma
T-47D breast = system: T-47D breast
SK-MEL-5 melanoma = system: SK-MEL-5 melanoma
COLO 205 colon = system: COLO 205 colon
SF-539 CNS = system: SF-539 CNS
HCT-15 colon = system: HCT-15 colon
NCI-H226 lung = system: NCI-H226 lung
EKVX NSCLC = system: EKVX NSCLC
SNB-19 CNS = system: SNB-19 CNS
MDA-MB-231 breast = system: MDA-MB-231 breast
RXF 393 renal = system: RXF 393 renal
UO-31 renal = system: UO-31 renal
IGROV1 ovarian = system: IGROV1 ovarian
TK-10 renal = system: TK-10 renal
HS 578T breast = system: HS 578T breast
786-0 renal = system: 786-0 renal
M14 melanoma = system: M14 melanoma
A498 renal = system: A498 renal
MCF7 breast = system: MCF7 breast
SK-MEL-2 melanoma = system: SK-MEL-2 melanoma

Compound: O=C1CC(c2ccccc2Cl)Oc2ccccc21 (stereo not drawn)
- TGI (SR leukemia): 50.9 µM
- TGI (UACC-62 melanoma): > 100 µM
- TGI (SF-268 CNS): > 100 µM
- TGI (SF-295 CNS): > 100 µM
- TGI (SK-OV-3 ovarian): > 100 µM
- TGI (MDA-MB-435): 43.7 µM
- TGI (HL-60(TB) leukemia): > 100 µM
- TGI (UACC-257 melanoma): > 100 µM
- TGI (OVCAR-4 ovarian): > 100 µM
- TGI (PC-3 prostate): > 100 µM
- TGI (NCI/ADR-RES ovarian): 48.8 µM
- TGI (DU-145 prostate): > 100 µM
- TGI (RPMI-8226 leukemia): 40.7 µM
- TGI (HCC-2998 colon): > 100 µM
- TGI (HOP-62 NSCLC): 91.1 µM
- TGI (OVCAR-8 ovarian): 87.1 µM
- TGI (SK-MEL-28 melanoma): > 100 µM
- TGI (HT29 colon): 22.7 µM
- TGI (HCT-116 colon): > 100 µM
- TGI (CCRF-CEM leukemia): > 100 µM
- TGI (U251 CNS): 83 µM
- TGI (HOP-92 NSCLC): 75.2 µM
- TGI (SW-620 colon): 67.5 µM
- TGI (SNB-75 CNS): > 100 µM
- TGI (CAKI-1 renal): > 100 µM
- TGI (NCI-H460 lung): > 100 µM
- TGI (K-562 leukemia): 40.8 µM
- TGI (KM12 colon): 81.7 µM
- TGI (LOX IMVI melanoma): > 100 µM
- TGI (T-47D breast): > 100 µM
- TGI (SK-MEL-5 melanoma): > 100 µM
- TGI (COLO 205 colon): 68.2 µM
- TGI (SF-539 CNS): 34.8 µM
- TGI (HCT-15 colon): 61 µM
- TGI (NCI-H226 lung): 30.1 µM
- TGI (EKVX NSCLC): > 100 µM
- TGI (SNB-19 CNS): > 100 µM
- TGI (MDA-MB-231 breast): 47.4 µM
- TGI (RXF 393 renal): 63.5 µM
- TGI (UO-31 renal): > 100 µM
- TGI (IGROV1 ovarian): > 100 µM
- TGI (TK-10 renal): > 100 µM
- TGI (HS 578T breast): > 100 µM
- TGI (786-0 renal): 89.5 µM
- TGI (M14 melanoma): > 100 µM
- TGI (A498 renal): > 100 µM
- TGI (MCF7 breast): 45.4 µM
- TGI (SK-MEL-2 melanoma): 59.9 µM
